Patent US9815839B2, “N-(1-(substituted-phenyl)ethyl)-9H-purin-6-amines as PI3K inhibitors” (Incyte Corporation, priority 2010, dated 2017)
Where a name gives a salt, the structure may show the parent alone.

What follows are molecules tested against T1, PI3Kδ (p110δ/p85α) (Homo sapiens, UniProt O00329) (assay: PI3Kδ scintillation proximity assay). Conditions: 20 μM ATP, 4 nM PI3Kδ.
T1 construct: purchased Millipore (Bedford, Mass.)
Assay type: biochemical
Description: Example A: PI3Kδ Scintillation Proximity Assay
Materials: [γ-^33P]ATP (10 mCi/mL) was purchased from Perkin-Elmer (Waltham, Mass.). Lipid kinase substrate, D-myo-Phosphatidylinositol 4,5-bisphosphate (PtdIns(4,5)P2)D (+)-sn-1,2-di-O-octanoylglyceryl, 3-O-phospho linked (PIP2), CAS 204858-53-7, was purchased from Echelon Biosciences (Salt Lake City, Utah). PI3Kδ (p110δ/p85α) was purchased from Millipore (Bedford, Mass.). ATP, MgCl2, DTT, EDTA, MOPS and CHAPS were purchased from Sigma-Aldrich (St. Louis, Mo.). Wheat Germ Agglutinin (WGA) YSi SPA Scintillation Beads was purchased from GE healthcare life sciences (Piscataway, N.J.).
The kinase reaction was conducted in polystyrene 384-well matrix white plate from Thermo Fisher Scientific in a final volume of 25 μL. Inhibitors were first diluted serially in DMSO and added to the plate wells before the addition of other reaction components. The final concentration of DMSO in the assay was 0.5%. The PI3K assays were carried out at room temperature in 20 mM MOPS, pH 6.7, 10 mM MgCl2, 5 mM DTT and CHAPS 0.03%. Reactions were initiated by the addition of ATP, the final reaction mixture consisted of 20 μM PIP2,20 μM ATP, 0.2 μCi [γ-^33P] ATP, 4 nM PI3Kδ. Reactions were incubated for 210 minutes and terminated by the addition of 40 μL SPA beads suspended in quench buffer: 150 mM potassium phosphate pH 8.0, 20% glycerol. 25 mM EDTA, 400 µM ATP. The final concentration of SPA beads is 1.0 mg/mL. After the plate sealing, plates were shaken overnight at room temperature and centrifuged at 1800 rpm for 10 minutes, the radioactivity of the product was determined by scintillation counting on Topcount (Perkin-Elmer). IC50 determination was performed by fitting the curve of percent control activity versus the log of the inhibitor concentration using the GraphPad Prism 3.0 software.

T1 sequence (O00329 whole entry, species assumed): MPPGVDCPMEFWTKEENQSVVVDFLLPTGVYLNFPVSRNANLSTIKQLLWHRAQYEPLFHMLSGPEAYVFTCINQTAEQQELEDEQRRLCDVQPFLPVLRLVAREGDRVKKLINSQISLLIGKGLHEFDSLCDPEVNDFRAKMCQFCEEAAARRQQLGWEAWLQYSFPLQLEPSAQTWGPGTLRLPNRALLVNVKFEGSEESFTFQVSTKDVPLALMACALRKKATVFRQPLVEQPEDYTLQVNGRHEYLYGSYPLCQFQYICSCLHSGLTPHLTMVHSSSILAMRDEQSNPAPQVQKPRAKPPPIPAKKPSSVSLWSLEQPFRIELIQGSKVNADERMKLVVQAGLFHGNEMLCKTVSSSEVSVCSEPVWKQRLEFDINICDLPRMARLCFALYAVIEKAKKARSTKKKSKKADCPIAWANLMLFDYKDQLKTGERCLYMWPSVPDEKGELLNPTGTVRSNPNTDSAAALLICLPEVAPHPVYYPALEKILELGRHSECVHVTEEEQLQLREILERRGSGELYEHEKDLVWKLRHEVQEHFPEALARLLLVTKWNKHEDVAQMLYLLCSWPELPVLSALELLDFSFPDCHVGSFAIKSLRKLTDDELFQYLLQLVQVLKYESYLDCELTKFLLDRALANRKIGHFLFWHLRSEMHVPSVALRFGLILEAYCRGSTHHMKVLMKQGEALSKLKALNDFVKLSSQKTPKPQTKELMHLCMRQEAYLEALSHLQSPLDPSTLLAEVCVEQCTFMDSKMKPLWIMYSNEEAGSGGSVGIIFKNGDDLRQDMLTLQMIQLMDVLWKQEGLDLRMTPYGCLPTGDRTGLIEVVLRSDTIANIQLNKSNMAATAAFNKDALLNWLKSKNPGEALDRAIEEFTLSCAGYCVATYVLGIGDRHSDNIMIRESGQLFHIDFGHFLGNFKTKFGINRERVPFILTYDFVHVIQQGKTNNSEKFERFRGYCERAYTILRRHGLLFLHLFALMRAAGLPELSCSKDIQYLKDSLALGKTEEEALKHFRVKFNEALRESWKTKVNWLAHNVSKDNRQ
T1 sequence (P27986 whole entry partner, species assumed): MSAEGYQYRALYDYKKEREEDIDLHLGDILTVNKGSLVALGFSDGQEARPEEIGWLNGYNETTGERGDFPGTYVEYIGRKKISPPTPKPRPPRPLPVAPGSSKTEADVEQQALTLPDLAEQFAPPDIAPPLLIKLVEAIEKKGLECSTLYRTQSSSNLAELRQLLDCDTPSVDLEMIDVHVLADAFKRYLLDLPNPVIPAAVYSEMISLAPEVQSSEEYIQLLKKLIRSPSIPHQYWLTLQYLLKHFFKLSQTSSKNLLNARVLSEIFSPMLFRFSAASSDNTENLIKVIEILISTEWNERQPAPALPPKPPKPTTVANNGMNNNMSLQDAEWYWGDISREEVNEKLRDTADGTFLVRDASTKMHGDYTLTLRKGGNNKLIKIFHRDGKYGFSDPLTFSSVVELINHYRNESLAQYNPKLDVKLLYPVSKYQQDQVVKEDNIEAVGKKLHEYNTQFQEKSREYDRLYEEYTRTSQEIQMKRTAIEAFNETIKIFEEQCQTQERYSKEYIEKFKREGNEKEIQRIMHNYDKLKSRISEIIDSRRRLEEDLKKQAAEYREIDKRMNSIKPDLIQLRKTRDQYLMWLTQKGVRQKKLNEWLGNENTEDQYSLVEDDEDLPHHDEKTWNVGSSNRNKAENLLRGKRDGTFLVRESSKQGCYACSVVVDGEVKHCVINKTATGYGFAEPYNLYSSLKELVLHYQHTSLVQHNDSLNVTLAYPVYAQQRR

| SMILES | IC50 [nM] |
| --- | --- |
| COc1c(C(C)Nc2ncnc3[nH]cnc23)cc(Cl)c(Cl)c1C1CN(CC#N)C1 (stereo not drawn) [Example 206, (3-{2,3-Dichloro-6-methoxy-5-[1-(9H-purin-6-ylamino)ethyl]phenyl}azetidin-1-yl)acetonitrile bis(trifluoroacetate)] | < 50 |
| COc1c(C(C)Nc2ncnc3[nH]cnc23)cc(Cl)c(C)c1C1CN(C)C1 (stereo not drawn) [Example 171, N-{1-[5-Chloro-2-methoxy-4-methyl-3-(1-methylazetidin-3-yl)phenyl]ethyl}-9H-purin-6-amine bis(trifluoroacetate)] | < 50 |
| COc1c(C(C)Nc2ncnc3[nH]cnc23)cc(Cl)c(Cl)c1C1CN(C(C)C(F)(F)F)C1 (stereo not drawn) [Example 198, N-(1-{4,5-Dichloro-2-methoxy-3-[1-(2,2,2-trifluoro-1-methylethyl)azetidin-3-yl]phenyl}ethyl)-9H-purin-6-amine bistrifluoroacetate] | < 50 |
| Cc1c(Cl)cc(C(C)Nc2ncnc3[nH]cnc23)c(OCCN2CCOCC2)c1-c1cncc(C(=O)N2CCOCC2)c1 (stereo not drawn) [Example 155, N-{1-[5-chloro-4-methyl-3-[5-(morpholin-4-ylcarbonyl)-pyridin-3-yl]-2-(2-morpholin-4-ylethoxy)-phenyl]-ethyl}-9H-purin-6-amine] | < 50 |
| COc1c(C(C)Nc2ncnc3[nH]cnc23)cc(Cl)c(C)c1-c1ccc(C(=O)N2CC(C#N)C2)c(F)c1 (stereo not drawn) [Example 63, 1-({3′-Chloro-3-fluoro-6′-methoxy-2′-methyl-5′-[1-(9H-purin-6-ylamino)ethyl]biphenyl-4-yl}carbonyl)azetidine-3-carbonitrile] | < 50 |
| COc1c(C(C)Nc2ncnc3[nH]cnc23)cc(Cl)c(C)c1-c1ccc(C(=O)N(C)C)c(F)c1 (stereo not drawn) [Example 65, 3′-chloro-3-fluoro-6′-methoxy-N,N,2′-trimethyl-5′-[1-(9H-purin-6-ylamino)ethyl]biphenyl-4-carboxamide] | < 50 |
| COc1c(C(C)Nc2ncnc3[nH]cnc23)cc(Cl)c(C)c1C1CN(S(C)(=O)=O)C1 (stereo not drawn) [Example 169, N-(1-{5-Chloro-2-methoxy-4-methyl-3-[1-(methylsulfonyl)azetidin-3-yl]phenyl}ethyl)-9H-purin-6-amine trifluoroacetate] | < 50 |
| COc1ccc(-c2c(C)c(Cl)cc(C(C)Nc3ncnc4[nH]cnc34)c2OCCN2CCOCC2)cc1OC (stereo not drawn) [Example 153, N-{1-[5-chloro-3′,4′-dimethoxy-6-methyl-2-(2-mor-pholin-4-ylethoxy)-biphenyl-3-yl]ethyl}-9H-purin-6-amine] | < 50 |
| CNC(=O)N1CC(c2c(C)c(Cl)cc(C(C)Nc3ncnc4[nH]cnc34)c2OC)C1 (stereo not drawn) [Example 168, 3-{3-Chloro-6-methoxy-2-methyl-5-[1-(9H-purin-6-ylamino)ethyl]phenyl}-N-methylazetidine-1-carboxamide trifluoroacetate] | < 50 |
| COc1c(C(C)Nc2ncnc3[nH]cnc23)cc(Cl)c(C)c1C1CNC1 (stereo not drawn) [Example 165, N-[1-(3-azetidin-3-yl-5-chloro-2-methoxy-4-methylphenyl)ethyl]-9H-purin-6-amine bis(trifluoroacetate)] | < 50 |
| Cc1c(Cl)cc(C(C)Nc2ncnc3[nH]cnc23)c(OCCN2CCOCC2)c1-c1ccncc1 (stereo not drawn) [Example 126, N-{1-[5-Chloro-4-methyl-2-(2-morpholin-4-ylethoxy)-3-pyridin-4-ylphenyl]ethyl}-9H-purin-6-amine] | < 50 |
| COc1c(-c2ccc(F)nc2)cc(Cl)cc1C(C)Nc1ncnc2[nH]cnc12 (stereo not drawn) [Example 147, N-{1-[5-chloro-3-(6-fluoropyridin-3-yl)-2-methoxyphenyl]-ethyl}-9H-purin-6-amine] | < 50 |
| COc1c(C(C)Nc2ncnc3[nH]cnc23)cc(Cl)c(C)c1-c1ccc(C(C)(C)OC)nc1 (stereo not drawn) [Example 185, N-(1-{5-chloro-2-methoxy-3-[6-(1-methoxy-1-methylethyl)pyridin-3-yl]-4-methylphenyl}ethyl)-9H-purin-6-amine bis(2,2,2-trifluoroacetate)] | < 50 |
| COc1c(C(C)Nc2ncnc3[nH]cnc23)cc(Cl)c(C)c1C1CC(=O)N(C)C1 (single isomer, unassigned) [Example 193, 4-{3-chloro-6-methoxy-2-methyl-5-[1-(9H-purin-6-ylamino)ethyl]phenyl}-1-methylpyrrolidin-2-one] | < 50 |
| Cc1c(Cl)cc(C(C)Nc2ncnc3[nH]cnc23)c(OCCN2CCOCC2)c1-c1ccnn1C (stereo not drawn) [Example 152, N-{1-[5-chloro-4-methyl-3-(1-methyl-1H-pyrazol-5-yl)-2-(2-morpholin-4-ylethoxy)-phenyl]-ethyl}-9H-purin-6-amine] | < 50 |
| CCNC(=O)c1ccc(-c2c(C)c(Cl)cc(C(C)Nc3ncnc4[nH]cnc34)c2OC)cc1F (stereo not drawn) [Example 64, 3′-chloro-N-ethyl-3-fluoro-6′-methoxy-2′-methyl-5′-[1-(9H-purin-6-ylamino)ethyl]biphenyl-4-carboxamid] | < 50 |
| COc1cncc(-c2c(C)c(Cl)cc(C(C)Nc3ncnc4[nH]cnc34)c2OC)c1 (single isomer, unassigned) [Example 113, N-{1-[5-Chloro-2-methoxy-3-(5-methoxypyridin-3-yl)-4-methylphenyl]ethyl}-9H-purin-6-amine] | < 50 |
| CC(Nc1ncnc2[nH]cnc12)c1cc(Cl)cc(-c2cc(F)nc(F)c2)c1-c1cc(F)cc(F)c1 (stereo not drawn) [Example 133, N-{1-[4-chloro-6-(2,6-difluoropyridin-4-yl)-3′,5′-difluorobiphenyl-2-yl]ethyl}-9H-purin-6-amine] | 50 to 100 |
| COc1c(C(C)Nc2ncnc3[nH]cnc23)cc(Cl)c(C)c1-c1cccc(NC(C)=O)c1 (stereo not drawn) [Example 104, N-{3′-chloro-6′-methoxy-2′-methyl-5′-[1-(9H-purin-6-ylamino)ethyl]biphenyl-3-yl}acetamide] | < 50 |
| COc1ncc(-c2c(C)c(Cl)cc(C(C)Nc3ncnc4[nH]cnc34)c2OCCN2CCOCC2)cc1F (stereo not drawn) [Example 160, N-{1-[5-chloro-3-(5-fluoro-6-methoxy-pyridin-3-yl)-4-methyl-2-(2-mor-pholin-4-ylethoxy)-phenyl]-ethyl}-9H-purin-6-amine] | < 50 |
| COc1c(C(C)Nc2ncnc3[nH]cnc23)cc(Cl)c(C)c1-c1ccc(OC(F)(F)F)cc1 (stereo not drawn) [Example 90, N-{1-[5-chloro-2-methoxy-6-methyl-4′-(trifluoromethoxy)biphenyl-3-yl]ethyl}-9H-purin-6-amine] | 250 to 500 |
| COc1c(C(C)Nc2ncnc3[nH]cnc23)cc(Cl)c(C)c1-c1ccc(F)c(C(N)=O)c1 (stereo not drawn) [Example 61, 3′-Chloro-4-fluoro-6′-methoxy-2′-methyl-5′-[1-(9H-purin-6-ylamino)ethyl]biphenyl-3-carboxamide] | < 50 |
| COc1c(-c2ccnc(F)c2)cc(Cl)cc1C(C)Nc1ncnc2[nH]cnc12 (stereo not drawn) [Example 145, N-{1-[5-chloro-3-(2-fluoropyridin-4-yl)-2-methoxyphenyl]ethyl}-9H-purin-6-amine] | < 50 |
| COc1c(-c2cc(F)nc(F)c2)cc(Cl)cc1C(C)Nc1ncnc2[nH]cnc12 (stereo not drawn) [Example 141, N-{1-[5-chloro-3-(2,6-difluoropyridin-4-yl)-2-methoxyphenyl]ethyl}-9H-purin-6-amine] | 250 to 500 |
| CNC(=O)c1ccc(-c2cc(Cl)cc(C(C)Nc3ncnc4[nH]cnc34)c2OC)cc1Cl (stereo not drawn) [Example 144, 3,5′-dichloro-2′-methoxy-N-methyl-3′-[1-(9H-purin-6-ylamino)ethyl]biphenyl-4-carboxamide] | < 50 |
| CCOc1c(C(C)Nc2ncnc3[nH]cnc23)cc(Cl)c(C#N)c1C1CN(C(C)C)C1 (single isomer, unassigned) [Example 214, 6-Chloro-3-ethoxy-2-(1-isopropylazetidin-3-yl)-4-[1-(9H-purin-6-ylamino)ethyl]benzonitrile bis(trifluoroacetate)] | < 50 |
| COc1c(C(C)Nc2ncnc3[nH]cnc23)cc(Cl)c(C)c1-c1ccc(F)c(F)c1 (stereo not drawn) [Example 105, N-[1-(5-chloro-3′,4′-difluoro-2-methoxy-6-methylbiphenyl-3-yl)ethyl]-9H-purin-6-amine] | < 50 |
| COc1ccc(-c2c(C)c(Cl)cc(C(C)Nc3ncnc4[nH]cnc34)c2OC)cc1C (stereo not drawn) [Example 102, N-[1-(5-chloro-2,4′-dimethoxy-3′,6-dimethylbiphenyl-3-yl)ethyl]-9H-purin-6-amine] | 100 to 250 |
| COc1cncc(-c2c(C)c(Cl)cc(C(C)Nc3ncnc4[nH]cnc34)c2OCCN2CCOCC2)c1 (stereo not drawn) [Example 157, N-{1-[5-chloro-3-(5-methoxy-pyridin-3-yl)-4-methyl-2-(2-mor-pholin-4-ylethoxy)-phenyl]-ethyl}-9H-purin-6-amine] | < 50 |
| COc1c(C(C)Nc2ncnc3[nH]cnc23)cc(Cl)c(C)c1-c1ccnnc1 (stereo not drawn) [Example 163, N-[1-(5-Chloro-2-methoxy-4-methyl-3-pyridazin-4-ylphenyl)ethyl]-9H-purin-6-amine bis(trifluoroacetate)] | < 50 |
